PubChem BioAssay (NCI)
Where “and” joins values, the source holds several entries; their conditions need not be identical. Equal values may be shown once.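 Following 48 hours of exposure in 96-well plates, responses at five concentrations were used to interpolate endpoints linearly. GI50 is the concentration that inhibits growth by half. At the TGI there is no net growth.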

Key:
Assay in all cases: growth of human tumour cells (NCI), 48 h
OVCAR-8 ovarian = tested on: OVCAR-8 ovarian
SK-MEL-5 melanoma = tested on: SK-MEL-5 melanoma
IGROV1 ovarian = tested on: IGROV1 ovarian
PC-3 prostate = tested on: PC-3 prostate
EKVX NSCLC = tested on: EKVX NSCLC
CCRF-CEM leukemia = tested on: CCRF-CEM leukemia
NCI-H226 lung = tested on: NCI-H226 lung
HCT-15 colon = tested on: HCT-15 colon
RXF 393 renal = tested on: RXF 393 renal
NCI-H23 lung = tested on: NCI-H23 lung

SMILES | GI50 (OVCAR-8 ovarian) | TGI (OVCAR-8 ovarian) | GI50 (SK-MEL-5 melanoma) | TGI (SK-MEL-5 melanoma) | GI50 (IGROV1 ovarian) | TGI (IGROV1 ovarian) [µM] | GI50 (PC-3 prostate) [µM] | TGI (PC-3 prostate) [µM] | GI50 (EKVX NSCLC) | TGI (EKVX NSCLC) | GI50 (CCRF-CEM leukemia) | TGI (CCRF-CEM leukemia) [µM] | GI50 (NCI-H226 lung) | TGI (NCI-H226 lung) | GI50 (HCT-15 colon) | TGI (HCT-15 colon) | GI50 (RXF 393 renal) | TGI (RXF 393 renal) | GI50 (NCI-H23 lung) | TGI (NCI-H23 lung)
CNCCCn1c2c(c3ccc([N+](=O)[O-])cc3c1=O)C(=O)c1cc(OC)cnc1-2 | 0.0861 µM | 1.81 µM | 0.107 µM | 0.279 µM | 0.205 µM | 2 | 0.13 | 1.88 | 0.273 µM | 5.83 µM | 0.0365 µM | 0.625 | 0.0946 µM | 0.245 µM | 0.119 µM | 0.714 µM | 0.0685 µM | 0.372 µM | 0.04 µM | 0.267 µM
Cc1ccc(-c2nc(C#N)c(S(=O)(=O)n3nc(C)cc3N)o2)cc1 | 4.66 µM | 20.9 µM | – | – | 2.99 µM | 8.28 | 13.8 | 29.8 | 21.8 µM | 55 µM | 2.55 µM | 7.83 | 15.6 µM | 41.4 µM | 1.9 µM | 3.72 µM | 1.87 µM | 3.56 µM | 13.9 µM | 37.3 µM
O=C(O)C1OC1(c1cccc(Cl)c1)c1ccccc1Cl (stereo not given) | – | > 100 µM | – | 35.4 µM | – | > 100 | – | 57.9 | – | 68.4 µM | – | 53.3 | – | 83.8 µM | – | 22.9 µM | – | 82.1 µM | – | 54.6 µM
O=c1ccn(C2CC(O)C(CO)O2)c(=O)[nH]1 (stereo not given) | > 5000 µM | > 5000 µM | > 5000 µM | > 5000 µM | > 5000 µM | > 5000 | > 5000 | > 5000 | > 5000 µM | > 5000 µM | 95.8 µM and 110 µM | 838 | > 5000 µM | > 5000 µM | > 5000 µM | > 5000 µM | > 5000 µM | > 5000 µM | > 5000 µM | > 5000 µM
COc1cc2ccccc2oc1=O | – | > 100 µM | – | > 100 µM | – | > 100 | – | > 100 | – | > 100 µM | – | > 100 | – | > 100 µM | – | > 100 µM | – | 48.5 µM | – | > 100 µM
CC1OC(n2c3ccccc3c3c4c(c5c6ccccc6[nH]c5c32)C(=O)N(CCN[C@@H]2CCC[C@H]2N)C4=O)CC(O)C1O (stereo not given in full) | 1.93 µM | 9.11 µM | 1.22 µM | 3.68 µM | 1.87 µM | 9.68 | 1.55 | 6.13 | 1.8 µM | 8.35 µM | 1.25 µM | 6.27 | 1.79 µM | 8.82 µM | 5.88 µM | 12.6 µM | 1.68 µM | 7.45 µM | 1.7 µM | 7.6 µM
COc1ccc(C2CC(C)(O)Oc3cc4c(cc32)OCO4)cc1 (stereo not given) | – | > 100 µM | – | 69 µM | – | > 100 | – | > 81.1 | – | > 100 µM | – | > 82.8 | – | > 100 µM | – | > 100 µM | – | > 39 µM | – | > 100 µM
CC1(N)CCN(c2cccnc2NC(=O)c2nc(-c3ncccc3C(F)(F)F)cnc2N)CC1 | 40.2 µM | > 100 µM | 18.3 µM | 33 µM | 3.67 µM | > 100 | 30.9 | > 100 | 34.9 µM | > 100 µM | 26.9 µM | > 100 | 35.9 µM | > 100 µM | 25.1 µM | > 100 µM | 10.1 µM | 32.4 µM | 49.5 µM | > 100 µM
O=C(N/C(=C/c1ccc(Cl)cc1Cl)c1nc2ccccc2s1)c1ccccc1 | – | 47.4 µM | – | 26.4 µM | – | 26.2 | – | 38.9 | – | 41 µM | – | > 100 | – | 27.7 µM | – | 13.3 µM | – | 54.9 µM | – | 26.5 µM
COc1cc2c3c(n(CCCCN)c(=O)c2cc1OC)-c1cc2c(cc1C3=O)OCO2 | 0.71 µM | 13.1 µM | 1.6 µM | 6.4 µM | 1.14 µM | 5.08 | 0.159 | 0.583 | 0.744 µM | 3.57 µM | 0.0913 µM | 3.75 | 0.492 µM | 1.58 µM | 0.805 µM | 9.81 µM | 1.47 µM | 5.72 µM | 0.676 µM | 3.09 µM
O=C(Nc1cccc(-n2cc(-c3ccncc3)c(-c3ccc(Cl)c(O)c3)n2)c1)c1ccc(N2CCOCC2)c(C(F)(F)F)c1 | 3.16 µM | > 50 µM | 2.47 µM | 10.2 µM | 9.42 µM | > 50 | 2.15 | > 50 | – | – | 1.82 µM | > 50 | > 50 µM | > 50 µM | 1.81 µM | 25.3 µM | 0.626 µM | 2.9 µM | 4.2 µM | 30.2 µM
COc1ccc2c(c1)nnn1c3ncccc3c(N=O)c21 | 0.389 µM and 0.517 µM | 21.4 µM and 3.73 µM | 5.01 µM and 11.7 µM | 11.1 µM and 24.1 µM | 0.114 µM and 1.09 µM | – | 2.05 | 92.7 | 3.38 µM and 3.82 µM | 25.3 µM and 61.8 µM | 0.0409 µM | > 100 | 4.14 µM and 11.6 µM | 13.1 µM and 47.7 µM | 3.13 µM and 2.31 µM | 50 µM and 11.8 µM | 0.308 µM and 1.96 µM | 3.14 µM and 10.9 µM | 5.17 µM and 1.84 µM | 13.5 µM and 6.43 µM
C=C1/C(=C\C=C2/CCC[C@]3(C)[C@@H]([C@H](C)CCCC(C)(C)O)CC[C@@H]23)C[C@@H](OC(=O)CBr)C[C@@H]1O | 2.12 µM | 30.5 µM | 2.46 µM | 6.41 µM | 0.0604 µM | 0.15 | 1.11 | 5.88 | 3.17 µM | 19.5 µM | 0.0491 µM | 0.307 | 3.74 µM | 22.1 µM | 1.48 µM | 3.31 µM | 2.6 µM | 7.41 µM | 0.386 µM | 2.31 µM
COc1cc2oc3cc(=O)cc4oc(-c5ccccc5)cc(c2c2c1CCC(c1ccccc1)O2)c43 (stereo not given) | – | > 100 µM | – | 65.1 µM | – | > 100 | – | > 100 | – | > 100 µM | – | > 100 | – | > 100 µM | – | 91.9 µM | – | > 100 µM | – | > 100 µM
